According to PubChem BioAssay (NCI):
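Following 48 hours of exposure in 96-well plates, responses at five concentrations were used to interpolate endpoints linearly. The concentration for 50% growth inhibition is given as GI50. TGI: total growth inhibition.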

Experiments:
Experiment in all cases: NCI tumour cell line growth inhibition, 48 h
NCI-H522 lung = tested on: NCI-H522 lung
MALME-3M melanoma = tested on: MALME-3M melanoma
NCI-H226 lung = tested on: NCI-H226 lung
UACC-62 melanoma = tested on: UACC-62 melanoma
OVCAR-3 ovarian = tested on: OVCAR-3 ovarian
HCC-2998 colon = tested on: HCC-2998 colon
NCI/ADR-RES ovarian = tested on: NCI/ADR-RES ovarian
COLO 205 colon = tested on: COLO 205 colon
M14 melanoma = tested on: M14 melanoma
SK-MEL-5 melanoma = tested on: SK-MEL-5 melanoma
MDA-MB-435 = tested on: MDA-MB-435
SN12C renal = tested on: SN12C renal
HCT-15 colon = tested on: HCT-15 colon
TK-10 renal = tested on: TK-10 renal
SK-MEL-28 melanoma = tested on: SK-MEL-28 melanoma
SF-268 CNS = tested on: SF-268 CNS
NCI-H23 lung = tested on: NCI-H23 lung
CAKI-1 renal = tested on: CAKI-1 renal
DU-145 prostate = tested on: DU-145 prostate
T-47D breast = tested on: T-47D breast
A549 NSCLC = tested on: A549 NSCLC
A498 renal = tested on: A498 renal
MOLT-4 leukemia = tested on: MOLT-4 leukemia
SNB-19 CNS = tested on: SNB-19 CNS
EKVX NSCLC = tested on: EKVX NSCLC
OVCAR-4 ovarian = tested on: OVCAR-4 ovarian
MCF7 breast = tested on: MCF7 breast
IGROV1 ovarian = tested on: IGROV1 ovarian
RPMI-8226 leukemia = tested on: RPMI-8226 leukemia
SK-OV-3 ovarian = tested on: SK-OV-3 ovarian
OVCAR-8 ovarian = tested on: OVCAR-8 ovarian
PC-3 prostate = tested on: PC-3 prostate
U251 CNS = tested on: U251 CNS
SK-MEL-2 melanoma = tested on: SK-MEL-2 melanoma
UO-31 renal = tested on: UO-31 renal
NCI-H460 lung = tested on: NCI-H460 lung
ACHN renal = tested on: ACHN renal
HOP-92 NSCLC = tested on: HOP-92 NSCLC
SW-620 colon = tested on: SW-620 colon
786-0 renal = tested on: 786-0 renal
SF-539 CNS = tested on: SF-539 CNS
KM12 colon = tested on: KM12 colon
HT29 colon = tested on: HT29 colon
SF-295 CNS = tested on: SF-295 CNS
OVCAR-5 ovarian = tested on: OVCAR-5 ovarian
BT-549 breast = tested on: BT-549 breast
MDA-MB-231 breast = tested on: MDA-MB-231 breast
SNB-75 CNS = tested on: SNB-75 CNS
CCRF-CEM leukemia = tested on: CCRF-CEM leukemia
HOP-62 NSCLC = tested on: HOP-62 NSCLC
HL-60(TB) leukemia = tested on: HL-60(TB) leukemia
K-562 leukemia = tested on: K-562 leukemia
UACC-257 melanoma = tested on: UACC-257 melanoma
RXF 393 renal = tested on: RXF 393 renal
LOX IMVI melanoma = tested on: LOX IMVI melanoma
HCT-116 colon = tested on: HCT-116 colon
HS 578T breast = tested on: HS 578T breast
SR leukemia = tested on: SR leukemia

## O=C1c2c(c3c4cc(O)ccc4oc3c3[nH]c4ccccc4c23)C(=O)N1O
NCI-H522 lung
  GI50: 220 nM
  TGI: 1220 nM
MALME-3M melanoma
  GI50: 851 nM
  TGI: 5080 nM
NCI-H226 lung
  GI50: 1320 nM
  TGI: 5010 nM
UACC-62 melanoma
  GI50: 703 nM
  TGI: 2400 nM
OVCAR-3 ovarian
  GI50: 1570 nM
  TGI: 5230 nM
HCC-2998 colon
  GI50: 1350 nM
  TGI: 3590 nM
NCI/ADR-RES ovarian
  GI50: 1570 nM
  TGI: 29700 nM
COLO 205 colon
  GI50: 1800 nM
  TGI: 9360 nM
M14 melanoma
  GI50: 371 nM
  TGI: 3870 nM
SK-MEL-5 melanoma
  GI50: 275 nM
  TGI: 815 nM
MDA-MB-435
  GI50: 627 nM
  TGI: 2750 nM
SN12C renal
  GI50: 468 nM
  TGI: 5790 nM
HCT-15 colon
  GI50: 1450 nM
  TGI: 7190 nM
TK-10 renal
  GI50: 5180 nM
  TGI: 15400 nM
SK-MEL-28 melanoma
  GI50: 1150 nM
  TGI: 5460 nM
SF-268 CNS
  GI50: 553 nM
  TGI: 4270 nM
NCI-H23 lung
  GI50: 411 nM
  TGI: 2250 nM
CAKI-1 renal
  GI50: 787 nM
  TGI: 3740 nM
DU-145 prostate
  GI50: 626 nM
  TGI: 11200 nM
T-47D breast
  GI50: 461 nM
  TGI: 4530 nM
A549 NSCLC
  GI50: 3290 nM
  TGI: 18300 nM
A498 renal
  GI50: 3160 nM
  TGI: 9480 nM
MOLT-4 leukemia
  GI50: 320 nM
  TGI: 1340 nM
SNB-19 CNS
  GI50: 542 nM
  TGI: 5530 nM
EKVX NSCLC
  GI50: 2080 nM
  TGI: 8040 nM
OVCAR-4 ovarian
  GI50: 2170 nM
  TGI: 10700 nM
MCF7 breast
  GI50: 323 nM
  TGI: 5210 nM
IGROV1 ovarian
  GI50: 724 nM
  TGI: 2930 nM
RPMI-8226 leukemia
  GI50: 1410 nM
  TGI: 8010 nM
SK-OV-3 ovarian
  GI50: 941 nM
  TGI: 3300 nM
OVCAR-8 ovarian
  GI50: 820 nM
  TGI: 10700 nM
PC-3 prostate
  GI50: 812 nM
  TGI: 5550 nM
U251 CNS
  GI50: 452 nM
  TGI: 12700 nM
SK-MEL-2 melanoma
  GI50: 1380 nM
  TGI: 3080 nM
UO-31 renal
  GI50: 342 nM
  TGI: 1430 nM
NCI-H460 lung
  GI50: 414 nM
  TGI: 2890 nM
ACHN renal
  GI50: 360 nM
  TGI: 1760 nM
HOP-92 NSCLC
  GI50: 1140 nM
  TGI: 4600 nM
SW-620 colon
  GI50: 549 nM
  TGI: 7100 nM
786-0 renal
  GI50: 752 nM
  TGI: 6620 nM
SF-539 CNS
  GI50: 315 nM
  TGI: 1260 nM
KM12 colon
  GI50: 1910 nM
  TGI: 5780 nM
HT29 colon
  GI50: 1600 nM
  TGI: 3800 nM
SF-295 CNS
  GI50: 488 nM
  TGI: 5580 nM
OVCAR-5 ovarian
  GI50: 2770 nM
  TGI: 9300 nM
BT-549 breast
  GI50: 423 nM
  TGI: 1490 nM
MDA-MB-231 breast
  GI50: 1180 nM
  TGI: 4710 nM
SNB-75 CNS
  GI50: 1020 nM
  TGI: 2240 nM
CCRF-CEM leukemia
  GI50: 277 nM
  TGI: 9860 nM
HOP-62 NSCLC
  GI50: 721 nM
  TGI: 4470 nM
HL-60(TB) leukemia
  GI50: 460 nM
  TGI: 7830 nM
K-562 leukemia
  GI50: 428 nM
  TGI: 13900 nM
UACC-257 melanoma
  GI50: 1990 nM
  TGI: 6320 nM
RXF 393 renal
  GI50: 872 nM
  TGI: 2260 nM
LOX IMVI melanoma
  GI50: 258 nM
  TGI: 1020 nM
HCT-116 colon
  GI50: 1090 nM
  TGI: 2810 nM
HS 578T breast
  GI50: 1460 nM
  TGI: 5760 nM
SR leukemia
  GI50: 274 nM
  TGI: 1930 nM

## C=C(C)C(=O)O[C@H]1C[C@@]2(C)OC(=CC2=O)/C(CO)=C\[C@H]2OC(=O)C(=C)[C@H]12
NCI-H522 lung
  GI50: 7.73 nM
  TGI: 24.5 nM
MALME-3M melanoma
  GI50: 70.8 nM
  TGI: 203 nM
NCI-H226 lung
  GI50: 68.5 nM
  TGI: 172 nM
UACC-62 melanoma
  GI50: 56.9 nM
  TGI: 123 nM
OVCAR-3 ovarian
  GI50: 55.2 nM
  TGI: 149 nM
HCC-2998 colon
  GI50: 216 nM
  TGI: 535 nM
NCI/ADR-RES ovarian
  GI50: 224 nM
  TGI: > 3330 nM
COLO 205 colon
  GI50: 32.7 nM
  TGI: 95.4 nM
M14 melanoma
  GI50: 72.3 nM
  TGI: 178 nM
SK-MEL-5 melanoma
  GI50: 318 nM
  TGI: 1230 nM
MDA-MB-435
  GI50: 66.4 nM
  TGI: 146 nM
SN12C renal
  GI50: 114 nM
  TGI: > 1230 nM
HCT-15 colon
  GI50: 70.3 nM
  TGI: 223 nM
TK-10 renal
  GI50: 57.3 nM
  TGI: 127 nM
SK-MEL-28 melanoma
  GI50: 66.1 nM
  TGI: 148 nM
SF-268 CNS
  GI50: 168 nM
  TGI: 836 nM
NCI-H23 lung
  GI50: 153 nM
  TGI: 421 nM
CAKI-1 renal
  GI50: 87.9 nM
  TGI: 301 nM
DU-145 prostate
  GI50: 120 nM
  TGI: 673 nM
T-47D breast
  GI50: 72.9 nM
  TGI: 588 nM
A549 NSCLC
  GI50: 840 nM
  TGI: > 3330 nM
A498 renal
  GI50: 565 nM
  TGI: 1290 nM
MOLT-4 leukemia
  GI50: 80.2 nM
  TGI: 265 nM
SNB-19 CNS
  GI50: 937 nM
  TGI: > 3330 nM
EKVX NSCLC
  GI50: 137 nM
  TGI: 1070 nM
OVCAR-4 ovarian
  GI50: 151 nM
  TGI: 652 nM
MCF7 breast
  GI50: 86.1 nM
  TGI: 418 nM
IGROV1 ovarian
  GI50: 145 nM
  TGI: 562 nM
RPMI-8226 leukemia
  GI50: 80.9 nM
  TGI: 229 nM
SK-OV-3 ovarian
  GI50: 1190 nM
  TGI: > 3330 nM
OVCAR-8 ovarian
  GI50: 115 nM
  TGI: > 1540 nM
PC-3 prostate
  GI50: 190 nM
  TGI: 985 nM
U251 CNS
  GI50: 159 nM
  TGI: 579 nM
SK-MEL-2 melanoma
  GI50: 120 nM
  TGI: 490 nM
UO-31 renal
  GI50: 68.5 nM
  TGI: 177 nM
NCI-H460 lung
  GI50: 424 nM
  TGI: 2070 nM
ACHN renal
  GI50: 61.2 nM
  TGI: 228 nM
HOP-92 NSCLC
  GI50: 72.6 nM
  TGI: 173 nM
SW-620 colon
  GI50: 52.1 nM
  TGI: 147 nM
786-0 renal
  GI50: 65.2 nM
  TGI: 144 nM
SF-539 CNS
  GI50: 88 nM
  TGI: 287 nM
KM12 colon
  GI50: 509 nM
  TGI: 1120 nM
HT29 colon
  GI50: 112 nM
  TGI: 356 nM
SF-295 CNS
  GI50: 575 nM
  TGI: 1500 nM
OVCAR-5 ovarian
  GI50: 84.8 nM
  TGI: 226 nM
BT-549 breast
  GI50: 92.8 nM
  TGI: 292 nM
MDA-MB-231 breast
  GI50: 79.4 nM
  TGI: 206 nM
SNB-75 CNS
  GI50: 132 nM
  TGI: 1700 nM
CCRF-CEM leukemia
  GI50: 27.4 nM
  TGI: 259 nM
HOP-62 NSCLC
  GI50: 654 nM
  TGI: 2350 nM
HL-60(TB) leukemia
  GI50: 67.7 nM
  TGI: 189 nM
K-562 leukemia
  GI50: 94.6 nM
  TGI: 621 nM
UACC-257 melanoma
  GI50: 74 nM
  TGI: 213 nM
RXF 393 renal
  GI50: 57.6 nM
  TGI: 120 nM
LOX IMVI melanoma
  GI50: 53.3 nM
  TGI: 106 nM
HCT-116 colon
  GI50: 60.4 nM
  TGI: 163 nM
HS 578T breast
  GI50: 294 nM
  TGI: > 3330 nM
SR leukemia
  GI50: 43.7 nM
  TGI: 249 nM
